Source: patent US9302999B2, “Substituted triazoles as herbicides” (E. I. DU PONT DE NEMOURS AND COMPANY, priority 2012, dated 2016)

What was measured:
Type in all cases: in vivo
[1] = test system: common (oilseed) sunflower (Helianthus annuus); experiment: Test C pre-/postemergence: sunflower; details: Preemergence
Description: (§1) Seeds of plant species selected from blackgrass (Alopecurus myosuroides), bromegrass, downy (downy bromegrass, Bromus tectorum), foxtail, green (green foxtail, Setaria viridis), ryegrass, Italian (Italian ryegrass, Lolium multiflorum), winter wheat (Triticum aestivum), wild oat (Avena fatua), galium (catchweed bedstraw, Galium aparine), bermudagrass (Cynodon dactylon), surinam grass (Brachiaria decumbens), cocklebur (common cocklebur, Xanthium strumarium), corn (Zea mays), large crabgrass (Digitaria sanguinalis), woolly cupgrass (Eriochloa villosa), foxtail, giant (giant foxtail, Setaria faberii), goosegrass (Eleusine indica), johnsongrass (Sorghum halepense), kochia (Kochia scoparia), lambsquarters (Chenopodium album), morningglory (Ipomoea coccinea), nightshade (eastern black nightshade, Solanum ptycanthum), nutsedge, yellow (yellow nutsedge, Cyperus esculentus), pigweed (Amaranthus retroflexus), ragweed (common ragweed, Ambrosia elation), soybean (Glycine max), common (oilseed) sunflower (Helianthus annuus), Russian thistle (Salsola kali) and velvetleaf (Abutilon theophrasti) were planted into a blend of loam soil and sand and treated preemergence with test chemicals formulated in a non-phytotoxic solvent mixture which included a surfactant.
(§2) At the same time, plants selected from these crop and weed species and also barley (winter barley, Hordeum vulgare), canarygrass (Phalaris minor), chickweed (common chickweed, Stellaria media) windgrass (Apera spica-venti) and deadnettle (henbit deadnettle, Lamium amplexicaule) were planted in pots containing Redi-Earth® planting medium (Scotts Company, 14111 Scottslawn Road, Marysville, Ohio 43041) comprising spaghnum peat moss, vermiculite, wetting agent and starter nutrients and treated with postemergence applications of test chemicals formulated in the same manner. Plants ranged in height from 2 to 18 cm (1- to 4-leaf stage) for postemergence treatments.
(§3) Treated plants and controls were maintained in a greenhouse for 13 to 15 days, after which time all species were compared to controls and visually evaluated. Plant response ratings, summarized in Table C, are based on a scale of 0 to 100 where 0 is no effect and 100 is complete control. A dash (-) response means no test result.

[2] = test system: foxtail, green (green foxtail, Setaria viridis); experiment: Test C pre-/postemergence: foxtail, green
Method in brief: (§4)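 Visual injury scored 0–100 (100 = complete control) against untreated controls after 13–15 greenhouse days. Surfactant-containing solvent formulations applied either to soil after sowing (loam/sand) or over 1- to 4-leaf plants, 2–18 cm tall.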

[3] = test system: nightshade (eastern black nightshade, Solanum ptycanthum); experiment: Test C pre-/postemergence: nightshade; details: Preemergence
Description: as §1, §2, §3

[4] = test system: deadnettle (henbit deadnettle, Lamium amplexicaule); experiment: Test C postemergence: deadnettle
Method in brief: (§5)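 Seedlings are raised in pots of peat-based medium to 2–18 cm (1- to 4-leaf stage). The formulated compound is then applied postemergence. Plants stay in the greenhouse for 13 to 15 days and are rated visually against controls, where 0 means no effect and 100 complete control.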

[5] = test system: bermudagrass (Cynodon dactylon); experiment: Test C pre-/postemergence: bermudagrass
Method in brief: as §4

[6] = test system: bromegrass, downy (downy bromegrass, Bromus tectorum); experiment: Test C pre-/postemergence: bromegrass, downy
Method in brief: as §4

[7] = test system: woolly cupgrass (Eriochloa villosa); experiment: Test C pre-/postemergence: woolly cupgrass
Method in brief: as §4

[8] = test system: windgrass (Apera spica-venti); experiment: Test C postemergence: windgrass
Method in brief: as §5

[9] = test system: surinam grass (Brachiaria decumbens); experiment: Test C pre-/postemergence: surinam grass
Method in brief: as §4

[10] = test system: goosegrass (Eleusine indica); experiment: Test C pre-/postemergence: goosegrass
Method in brief: as §4

[11] = test system: canarygrass (Phalaris minor); experiment: Test C postemergence: canarygrass
Method in brief: as §5

[12] = 16 g ai/ha, scale 0 (no effect) to 100 (complete control)
[13] = 31 g ai/ha, scale of 0 to 100, 0 is no effect, 100 is complete control
[14] = 62 g ai/ha, scale of 0 to 100, 0 is no effect, 100 is complete control
[15] = 125 g ai/ha, scale 0 to 100, 0 no effect, 100 complete control
[16] = Postemergence, 16 g ai/ha, scale 0 to 100, 0 no effect, 100 complete control
[17] = Postemergence, 31 g ai/ha, scale 0 to 100 (0 no effect, 100 complete control)
[18] = Postemergence, 62 g ai/ha, scale 0 to 100 (0 no effect, 100 complete control)
[19] = Postemergence, 125 g ai/ha, scale 0 to 100, 0 no effect, 100 complete control
[20] = Preemergence, 16 g ai/ha, scale 0 (no effect) to 100 (complete control)
[21] = Preemergence, 31 g ai/ha, scale of 0 to 100, 0 is no effect, 100 is complete control
[22] = Preemergence, 62 g ai/ha, scale of 0 to 100, 0 is no effect, 100 is complete control
[23] = Preemergence, 125 g ai/ha, scale 0 to 100, 0 no effect, 100 complete control
[24] = 16 g ai/ha, scale 0 to 100, 0 no effect, 100 complete control
[25] = 31 g ai/ha, scale 0 to 100 (0 no effect, 100 complete control)
[26] = 62 g ai/ha, scale 0 to 100 (0 no effect, 100 complete control)
[27] = Preemergence, 62 g ai/ha, scale 0 to 100, 0 no effect, 100 complete control
[28] = 250 g ai/ha, scale 0 to 100, 0 no effect, 100 complete control
[29] = Postemergence, 250 g ai/ha, scale 0 to 100
[30] = Preemergence, 250 g ai/ha, scale 0 to 100, 0 no effect, 100 complete control

COc1nn(-c2ccc(C(F)(F)F)cc2)nc1Cc1ccnc(C(F)(F)F)c1 [Compound 15, 4-[[5-methoxy-2-[4-(trifluoromethyl)phenyl]-2H-1,2,3-triazol-4-yl]methyl]-2-(trifluoromethyl)pyridine]
Plant response rating, Sunflower [1, 12]: 0 | Plant response rating, Sunflower [1, 13]: 0 | Plant response rating, Sunflower [1, 14]: 0 | Plant response rating, Sunflower [1, 15]: 25 | Plant response rating, Foxtail, Green [2, 16]: 30 | Plant response rating, Foxtail, Green [2, 17]: 40 | Plant response rating, Foxtail, Green [2, 18]: 85 | Plant response rating, Foxtail, Green [2, 19]: 85 | Plant response rating, Foxtail, Green [2, 20]: 95 | Plant response rating, Foxtail, Green [2, 21]: 95 | Plant response rating, Foxtail, Green [2, 22]: 100 | Plant response rating, Foxtail, Green [2, 23]: 100 | Plant response rating, Nightshade [3, 12]: 10 | Plant response rating, Nightshade [3, 13]: 25 | Plant response rating, Nightshade [3, 14]: 85 | Plant response rating, Nightshade [3, 15]: 90 | Plant response rating, Deadnettle [4, 24]: 90 | Plant response rating, Deadnettle [4, 25]: 100 | Plant response rating, Deadnettle [4, 26]: 100 | Plant response rating, Deadnettle [4, 15]: 100 | Plant response rating, Bermudagrass [5, 16]: 5 | Plant response rating, Bermudagrass [5, 17]: 5 | Plant response rating, Bermudagrass [5, 18]: 15 | Plant response rating, Bermudagrass [5, 19]: 35 | Plant response rating, Bermudagrass [5, 20]: 100 | Plant response rating, Bermudagrass [5, 21]: 100 | Plant response rating, Bermudagrass [5, 27]: 100 | Plant response rating, Bermudagrass [5, 23]: 100 | Plant response rating, Bromegrass, Downy [6, 16]: 10 | Plant response rating, Bromegrass, Downy [6, 17]: 25 | Plant response rating, Bromegrass, Downy [6, 18]: 35 | Plant response rating, Bromegrass, Downy [6, 19]: 40 | Plant response rating, Bromegrass, Downy [6, 20]: 15 | Plant response rating, Bromegrass, Downy [6, 21]: 25 | Plant response rating, Bromegrass, Downy [6, 27]: 30 | Plant response rating, Bromegrass, Downy [6, 23]: 80 | Plant response rating, Cupgrass, Woolly [7, 16]: 5 | Plant response rating, Cupgrass, Woolly [7, 17]: 5 | Plant response rating, Cupgrass, Woolly [7, 18]: 5 | Plant response rating, Cupgrass, Woolly [7, 19]: 75 | Plant response rating, Cupgrass, Woolly [7, 20]: 5 | Plant response rating, Cupgrass, Woolly [7, 21]: 45 | Plant response rating, Cupgrass, Woolly [7, 22]: 85 | Plant response rating, Cupgrass, Woolly [7, 23]: 95 | Plant response rating, Windgrass [8, 24]: 20 | Plant response rating, Windgrass [8, 25]: 20 | Plant response rating, Windgrass [8, 26]: 85 | Plant response rating, Windgrass [8, 15]: 90 | Plant response rating, Surinam Grass [9, 16]: 5 | Plant response rating, Surinam Grass [9, 17]: 10 | Plant response rating, Surinam Grass [9, 18]: 15 | Plant response rating, Surinam Grass [9, 19]: 50 | Plant response rating, Surinam Grass [9, 20]: 10 | Plant response rating, Surinam Grass [9, 21]: 40 | Plant response rating, Surinam Grass [9, 22]: 55 | Plant response rating, Surinam Grass [9, 23]: 90 | Plant response rating, Goosegrass [10, 16]: 5 | Plant response rating, Goosegrass [10, 17]: 25 | Plant response rating, Goosegrass [10, 18]: 40 | Plant response rating, Goosegrass [10, 19]: 65 | Plant response rating, Goosegrass [10, 20]: 100 | Plant response rating, Goosegrass [10, 21]: 100 | Plant response rating, Goosegrass [10, 22]: 100 | Plant response rating, Goosegrass [10, 23]: 100 | Plant response rating, Canarygrass [11, 24]: 35 | Plant response rating, Canarygrass [11, 25]: 60 | Plant response rating, Canarygrass [11, 26]: 85 | Plant response rating, Canarygrass [11, 15]: 85

Cc1nn(-c2ccc(C(F)(F)F)cn2)nc1Oc1ccnc(C(F)(F)F)c1 [Compound 23]
Plant response rating, Sunflower [1, 13]: 0 | Plant response rating, Sunflower [1, 14]: 0 | Plant response rating, Sunflower [1, 15]: 0 | Plant response rating, Sunflower [1, 28]: 0 | Plant response rating, Foxtail, Green [2, 18]: 30 | Plant response rating, Foxtail, Green [2, 19]: 45 | Plant response rating, Foxtail, Green [2, 29]: 50 | Plant response rating, Foxtail, Green [2, 21]: 100 | Plant response rating, Foxtail, Green [2, 22]: 100 | Plant response rating, Foxtail, Green [2, 23]: 100 | Plant response rating, Foxtail, Green [2, 30]: 100 | Plant response rating, Nightshade [3, 13]: 50 | Plant response rating, Nightshade [3, 14]: 90 | Plant response rating, Nightshade [3, 15]: 95 | Plant response rating, Nightshade [3, 28]: 98 | Plant response rating, Deadnettle [4, 25]: 80 | Plant response rating, Deadnettle [4, 26]: 80 | Plant response rating, Deadnettle [4, 15]: 85 | Plant response rating, Deadnettle ([4]; 250 g ai/ha, scale 0 to 100): 98 | Plant response rating, Bermudagrass [5, 17]: 5 | Plant response rating, Bermudagrass [5, 18]: 10 | Plant response rating, Bermudagrass [5, 19]: 15 | Plant response rating, Bermudagrass [5, 29]: 30 | Plant response rating, Bermudagrass [5, 21]: 100 | Plant response rating, Bermudagrass [5, 27]: 100 | Plant response rating, Bermudagrass [5, 23]: 100 | Plant response rating, Bermudagrass [5, 30]: 100 | Plant response rating, Bromegrass, Downy [6, 17]: 5 | Plant response rating, Bromegrass, Downy [6, 18]: 5 | Plant response rating, Bromegrass, Downy [6, 19]: 5 | Plant response rating, Bromegrass, Downy [6, 29]: 5 | Plant response rating, Bromegrass, Downy [6, 21]: 0 | Plant response rating, Bromegrass, Downy [6, 27]: 0 | Plant response rating, Bromegrass, Downy [6, 23]: 5 | Plant response rating, Bromegrass, Downy [6, 30]: 10 | Plant response rating, Cupgrass, Woolly [7, 17]: 10 | Plant response rating, Cupgrass, Woolly [7, 18]: 10 | Plant response rating, Cupgrass, Woolly [7, 19]: 15 | Plant response rating, Cupgrass, Woolly [7, 29]: 50 | Plant response rating, Cupgrass, Woolly [7, 21]: 95 | Plant response rating, Cupgrass, Woolly [7, 22]: 100 | Plant response rating, Cupgrass, Woolly [7, 23]: 100 | Plant response rating, Cupgrass, Woolly [7, 30]: 100 | Plant response rating, Windgrass [8, 25]: 10 | Plant response rating, Windgrass [8, 26]: 15 | Plant response rating, Windgrass [8, 15]: 15 | Plant response rating, Windgrass ([8]; 250 g ai/ha, scale 0 to 100): 15 | Plant response rating, Surinam Grass [9, 17]: 5 | Plant response rating, Surinam Grass [9, 18]: 10 | Plant response rating, Surinam Grass [9, 19]: 10 | Plant response rating, Surinam Grass [9, 29]: 15 | Plant response rating, Surinam Grass [9, 21]: 15 | Plant response rating, Surinam Grass [9, 22]: 60 | Plant response rating, Surinam Grass [9, 23]: 100 | Plant response rating, Surinam Grass [9, 30]: 100 | Plant response rating, Goosegrass [10, 17]: 10 | Plant response rating, Goosegrass [10, 18]: 10 | Plant response rating, Goosegrass [10, 19]: 15 | Plant response rating, Goosegrass [10, 29]: 30 | Plant response rating, Goosegrass [10, 21]: 95 | Plant response rating, Goosegrass [10, 22]: 100 | Plant response rating, Goosegrass [10, 23]: 100 | Plant response rating, Goosegrass [10, 30]: 100 | Plant response rating, Canarygrass [11, 25]: 5 | Plant response rating, Canarygrass [11, 26]: 10 | Plant response rating, Canarygrass [11, 15]: 15 | Plant response rating, Canarygrass ([11]; 250 g ai/ha, scale 0 to 100): 15
